Values after ≈ are worked out from the molar mass of the structure shown. Active and inactive are the calls of the source. No cut-off for these calls is given here.
Tests used:
Acinetobacter baumannii [1] = experiment: Antimicrobial activity against Acinetobacter baumannii ATCC17978 assessed as bacterial growth inhibition incubated for 24 hrs in presence of 175.5 ug/mL K+ by Muller Hinton broth based dilution assay; type: functional
Staphylococcus aureus [2] = experiment: Antimicrobial activity against Staphylococcus aureus ATCC29213 assessed as bacterial growth inhibition incubated for 24 hrs in presence of 175.5 ug/mL K+ by Muller Hinton broth based dilution assay; type: functional
Cell membrane [3] = experiment: Disruption of membrane integrity in Candida albicans ATCC10231 assessed as increase in fluorescence intensity at 1 to 8 times of MIC measured for 1 hr by SYTOX green dye based fluorescence analysis
Cell membrane [4] = experiment: Induction of outer membrane permeabilization in Escherichia coli ATCC25922 assessed as increase in fluorescence intensity at 1 to 8 times of MIC measured for 1 hrs by NPN uptake assay
Cell membrane [5] = experiment: Disruption of membrane integrity in Escherichia coli ATCC25922 assessed as increase in fluorescence intensity at 1 to 8 times of MIC measured for 1 hr by SYTOX green dye based fluorescence analysis
Staphylococcus aureus [6] = experiment: Antibiofilm activity against Staphylococcus aureus ATCC29213 assessed as inhibition of biofilm formation at 0.39 ug/mL incubated for 24 hrs by crystal violet staining based analysis relative to control; type: functional
Acinetobacter baumannii [7] = experiment: Antimicrobial activity against Acinetobacter baumannii ATCC17978 assessed as bacterial growth inhibition incubated for 24 hrs in presence of 100 ug/mL Ca2+ by Muller Hinton broth based dilution assay; type: functional
Acinetobacter baumannii [8] = experiment: Antimicrobial activity against Acinetobacter baumannii ATCC17978 assessed as bacterial growth inhibition incubated for 24 hrs in presence of 24.3 ug/mL Mg2+ by Muller Hinton broth based dilution assay; type: functional
Staphylococcus aureus [9] = experiment: Disruption of preformed biofilm in Staphylococcus aureus ATCC29213 assessed as residual preformed biofilm at 0.78 ug/mL incubated for 24 hrs by crystal violet staining based analysis relative to control; type: functional; details: dose 0.78 µg/ml
Cell membrane [10] = experiment: Disruption of membrane integrity in Escherichia coli ATCC25922 assessed as red fluorescence at 8 times of MIC incubated for 2 hrs under dark condition by SYTO 9 and PI staining based laser confocal microscopy analysis
Escherichia coli [11] = experiment: Induction of drug resistance in Escherichia coli ATCC25922 assessed as change in MIC at sub-inhibitory concentration incubated for 21 to 22 passages; type: functional
Candida albicans [12] = experiment: Antimicrobial activity against Candida albicans CMCC98001 assessed as fungal growth inhibition incubated for 48 hrs in presence of 3220 ug/mL Na+ by Sabouraud Dextrose broth based dilution assay; type: functional
Staphylococcus aureus [13] = experiment: Antibiofilm activity against Staphylococcus aureus ATCC29213 assessed as inhibition of biofilm formation at 3.125 ug/mL incubated for 24 hrs by crystal violet staining based analysis relative to control; type: functional
Escherichia coli [14] = experiment: Disruption of preformed biofilm in Escherichia coli ATCC25922 assessed as residual preformed biofilm at 3.125 ug/mL incubated for 24 hrs by crystal violet staining based analysis relative to control; type: functional; details: dose 3.125 µg/ml
Staphylococcus aureus [15] = experiment: Antimicrobial activity against methicillin-resistant Staphylococcus aureus NCTC10442 assessed as bacterial growth inhibition incubated for 24 hrs by Muller Hinton broth based dilution assay; type: functional
[16] = Cytotoxicity against mouse corneal epithelial cells assessed as viable cells at 3.125 ug/mL incubated for 24 hrs by CCK-8 assay relative to control; type: toxicity, cell-based, Corneal epithelial cell; details: at 3.125 µg/mL, read-out: Activity
Escherichia coli [17] = experiment: Antimicrobial activity against Escherichia coli ATCC25922 assessed as bacterial killing at 1 to 8 times of MIC measured upto 24 hrs by time-kill kinetics assay; type: functional, organism-based
Escherichia coli [18] = experiment: Disruption of preformed biofilm in Escherichia coli ATCC25922 assessed as residual preformed biofilm at 12.5 ug/mL incubated for 24 hrs by crystal violet staining based analysis relative to control; type: functional; details: dose 12.5 µg/ml
[19] = Cytotoxicity against mouse corneal epithelial cells assessed as viable cells at 50 ug/mL incubated for 24 hrs by CCK-8 assay relative to control; type: toxicity, cell-based, Corneal epithelial cell; details: at 50 µg/mL, read-out: Activity
Candida albicans [20] = experiment: Antimicrobial activity against Candida albicans ATCC10231 assessed as fungal killing at 1 to 8 times of MIC measured upto 24 hrs by time-kill kinetics assay; type: functional, organism-based
[21] = Cytotoxicity against mouse NCTC clone 929 cells assessed as viable cells at 25 ug/mL incubated for 24 hrs by CCK-8 assay relative to control; type: toxicity, cell-based; details: NCTC clone 929 (L929) cells, at 25 µg/mL, read-out: Activity
[22] = Cytotoxicity against mouse J774.A1 cells assessed as viable cells at 50 ug/mL incubated for 24 hrs by CCK-8 assay relative to control; type: toxicity, cell-based; details: at 50 µg/mL, read-out: Activity
Candida albicans [23] = experiment: Antimicrobial activity against Candida albicans ATCC10231 assessed as fungal growth inhibition incubated for 48 hrs in presence of 3220 ug/mL Na+ by Sabouraud Dextrose broth based dilution assay; type: functional
Staphylococcus aureus [24] = experiment: Antimicrobial activity against methicillin-resistant Staphylococcus aureus N315 assessed as bacterial growth inhibition incubated for 24 hrs by Muller Hinton broth based dilution assay; type: functional
Staphylococcus aureus [25] = experiment: Antimicrobial activity against methicillin-resistant Staphylococcus aureus NCTC10442 assessed as bacterial growth inhibition incubated for 24 hrs in presence of 100 ug/mL Ca2+ by Muller Hinton broth based dilution assay; type: functional
Escherichia coli [26] = experiment: Antimicrobial activity against Escherichia coli ATCC25922 assessed as bacterial growth inhibition incubated for 24 hrs in presence of 24.3 ug/mL Mg2+ by Muller Hinton broth based dilution assay; type: functional
Staphylococcus aureus [27] = experiment: Antimicrobial activity against Staphylococcus aureus ATCC29213 assessed as log reduction in microbial load at 4 times of MIC measured at 1 hr by time-kill kinetics assay; type: functional
Cell membrane [28] = experiment: Disruption of membrane integrity in Staphylococcus aureus ATCC29213 assessed as red fluorescence at 8 times of MIC incubated for 2 hrs under dark condition by SYTO 9 and PI staining based laser confocal microscopy analysis
[29] = Cytotoxicity against mouse corneal epithelial cells assessed as viable cells at 12.5 ug/mL incubated for 24 hrs by CCK-8 assay relative to control; type: toxicity, cell-based, Corneal epithelial cell; details: at 12.5 µg/mL, read-out: Activity
Escherichia coli [30] = experiment: Disruption of preformed biofilm in Escherichia coli ATCC25922 assessed as residual preformed biofilm at 6.25 ug/mL incubated for 24 hrs by crystal violet staining based analysis relative to control; type: functional; details: dose 6.25 µg/ml
Pseudomonas aeruginosa = experiment: Antimicrobial activity against Pseudomonas aeruginosa ATCC9027 assessed as bacterial growth inhibition incubated for 24 hrs by Muller Hinton broth based dilution assay; type: functional
Escherichia coli [31] = experiment: Antimicrobial activity against Escherichia coli ATCC25922 assessed as log reduction in microbial load at 4 times of MIC measured at 1 hr by time-kill kinetics assay; type: functional
Cell membrane [32] = experiment: Disruption of outer membrane integrity in Acinetobacter baumannii ATCC17978
Staphylococcus aureus [33] = experiment: Antimicrobial activity against Staphylococcus aureus ATCC29213 assessed as bacterial growth inhibition incubated for 24 hrs in presence of 3220 ug/mL Na+ by Muller Hinton broth based dilution assay; type: functional

| SMILES | MIC (Acinetobacter baumannii [1]) [mg/L] | MIC (Staphylococcus aureus [2]) [mg/L] | Activity (Cell membrane [3]) | Activity (Cell membrane [4]) | Activity (Cell membrane [5]) | inhibition at 0.39 µg/mL (Staphylococcus aureus [6]) [%] | MIC (Acinetobacter baumannii [7]) [mg/L] | MIC (Acinetobacter baumannii [8]) [mg/L] | Activity (Staphylococcus aureus [9]) [%] | Activity (Cell membrane [10]) | Activity (Escherichia coli [11]) | MIC (Candida albicans [12]) [mg/L] | inhibition at 3.125 µg/mL (Staphylococcus aureus [13]) [%] | Activity (Escherichia coli [14]) [%] | MIC (Staphylococcus aureus [15]) [mg/L] | viability at 24 h, 3.125 ug/mL [16] [%] | Activity (Escherichia coli [17]) | Activity (Escherichia coli [18]) [%] | viability at 24 h, 50 ug/mL [19] [%] | Activity (Candida albicans [20]) | other results |
| --- | --- | --- | --- | --- | --- | --- | --- | --- | --- | --- | --- | --- | --- | --- | --- | --- | --- | --- | --- | --- | --- |
| CC(C)=CCN1CCCc2cc(OCCCCCCCCNC(=N)N)ccc21 | 3.12 | 0.78 | Dose-Dependent Effect | Active | Dose-Dependent Effect | 50.2 | 3.12 | 3.12 | 70.52 | Active | inactive | 0.78 | 100 | 47.23 | 0.78 (≈ 2.02 µM) | 99.7 | Dose-Dependent Effect | 6.85 | 36.3 | Dose-Dependent Effect | viability at 24 h, 25 ug/mL [21]: 77.9%; viability at 24 h, 50 ug/mL [22]: 31.3%; MIC (Candida albicans [23]): 0.78 mg/L; MIC (Staphylococcus aureus [24]): 0.78 mg/L (≈ 2.02 µM); MIC (Staphylococcus aureus [25]): 0.78 mg/L; MIC (Escherichia coli [26]): 3.12 mg/L; log(activity) (Staphylococcus aureus [27]): >3; Activity (Cell membrane [28]): Active; viability at 24 h, 12.5 ug/mL [29]: 87.6%; Activity (Escherichia coli [30]): 18.49%; MIC (Pseudomonas aeruginosa): 6.25 mg/L (≈ 16.2 µM); log(activity) (Escherichia coli [31]): >3; Activity (Cell membrane [32]): Active; MIC (Staphylococcus aureus [33]): 0.78 mg/L |
| CCCCCCCCCN1CCCc2cc(OCCCCNC(=N)N)ccc21 | 3.12 | 0.78 | Dose-Dependent Effect | Active | Dose-Dependent Effect | 65.2 | 3.12 | 3.12 | 71.31 | Active | inactive | 0.78 | 102 | 32.54 | 1.56 (≈ 4.01 µM) | 95.3 | Dose-Dependent Effect | 8.81 | 8.36 | Dose-Dependent Effect | viability at 24 h, 25 ug/mL [21]: 72.9%; viability at 24 h, 50 ug/mL [22]: 42.5%; MIC (Candida albicans [23]): 1.56 mg/L; MIC (Staphylococcus aureus [24]): 0.78 mg/L (≈ 2.01 µM); MIC (Staphylococcus aureus [25]): 0.78 mg/L; MIC (Escherichia coli [26]): 1.56 mg/L; log(activity) (Staphylococcus aureus [27]): >3; Activity (Cell membrane [28]): Active; viability at 24 h, 12.5 ug/mL [29]: 78%; Activity (Escherichia coli [30]): 15.34%; MIC (Pseudomonas aeruginosa): 6.25 mg/L (≈ 16.1 µM); log(activity) (Escherichia coli [31]): >3; Activity (Cell membrane [32]): Active; MIC (Staphylococcus aureus [33]): 0.78 mg/L |
